Reference: patent US20250296938A1, “Compounds that Interact with the Ras Superfamily for the Treatment of Cancers, Inflammatory Diseases, Rasopathies, and Fibrotic Disease” (SHY Therapeutics, LLC, priority 2018, published 2025)
Like-named read-outs stand apart in the source and are kept apart here.

What was measured:
Assay in all cases: Ras GTP binding domain inhibition assay (Cy3-GTP/Cy5-GTP competition)
[1] = biological target: T1, KRas G12D mutant (Homo sapiens, UniProt P01116, G12D); settings: 20 μM
T1 construct: fused on or other part: His tag, used for capture on nickel-coated plates
Procedure, shortened: (§1)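 His-tagged Ras proteins were captured on nickel-coated wells in Buffer-I (25 mM Tris-HCl pH 7.4, 27 mM KCl, 137 mM NaCl, 1 mM MgCl2, 1 mM DTT) or Buffer-II (50 mM Tris-HCl pH 7.0). Compounds (20 μM or serial dilution, 1% DMSO) were incubated 3 h at RT, ±Sos(556-1049) in the final hour. Bound Cy3-/Cy5-GTP (100 nM, 45 min) was read after washing.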

[2] = system: KRas G12C mutant; design: species or system human; settings: 20 μM; for KRas G12C mutant + SOS: % inh.: with SOS (Table 7A); for KRas G12C mutant: % inh.: without SOS (Table 7A)
Procedure, shortened: as §1

[3] = system: KRas Q61H mutant; design: species or system human; settings: 20 μM; for KRas Q61H mutant + SOS: % inh.: with SOS (Table 7A); for KRas Q61H mutant: % inh.: without SOS (Table 7A)
Procedure, shortened: as §1

[4] = system: KRas wild type; design: species or system human; settings: 20 μM; for KRas wild type + SOS: % inh.: with SOS (Table 7A); for KRas wild type % inh.: without SOS (Table 7A)
Procedure, shortened: as §1

[5] = with SOS (Table 7A), read-out: KRas G12D mutant + SOS: % inh.
[6] = without SOS (Table 7A), read-out: KRas G12D mutant: % inh.

SMILES | inhibition at 20 µM [1, 5] [%] | inhibition at 20 µM [1, 6] [%] | KRas G12C mutant + SOS: % inh. [2] | KRas G12C mutant: % inh. [2] | KRas Q61H mutant + SOS: % inh. [3] | KRas Q61H mutant: % inh. [3] | KRas wild type + SOS: % inh. [4] | KRas wild type % inh. [4]
COc1cccc(-c2sc3nc(-c4nccn4C)nc(NC4CCC(OC)C4)c3c2-c2ccccc2)c1F (centres unmarked) [drawing 883] | 51 to 75 | 26 to 50 | D (76-100% inhibition) | B (26-50% inhibition) | D (76-100% inhibition) | C (51-75% inhibition) | D (76-100% inhibition) | C (51-75% inhibition)
COC1CCC(Nc2nc(-c3nccn3C)nc3sc(-c4cccc(O)c4F)c(-c4ccccc4)c23)C1 (centres unmarked) [drawing 885] | 51 to 75 | 26 to 50 | C (51-75% inhibition) | B (26-50% inhibition) | C (51-75% inhibition) | B (26-50% inhibition) | C (51-75% inhibition) | B (26-50% inhibition)
COc1c(F)cccc1-c1sc2nc(-c3nccn3C)nc(NC3CCC(OC)C3)c2c1-c1ccccc1 (centres unmarked) [drawing 886] | 1 to 25 | 1 to 25 | A (1-25% inhibition) | B (26-50% inhibition) | B (26-50% inhibition) | A (1-25% inhibition) | A (1-25% inhibition) | B (26-50% inhibition)
COC1CCC(Nc2nc(-c3nccn3C)nc3sc(-c4cccc5[nH]ncc45)c(-c4ccccc4)c23)C1 (centres unmarked) [drawing 888] | 26 to 50 | 26 to 50 | D (76-100% inhibition) | B (26-50% inhibition) | D (76-100% inhibition) | C (51-75% inhibition) | D (76-100% inhibition) | B (26-50% inhibition)
COC1CCN(c2nc(-c3nccn3C)nc3sc(-c4cccc(O)c4F)c(-c4ccccc4)c23)C1 (centres unmarked) [drawing 890] | 51 to 75 | 1 to 25 | C (51-75% inhibition) | A (1-25% inhibition) | C (51-75% inhibition) | B (26-50% inhibition) | C (51-75% inhibition) | B (26-50% inhibition)
COc1cccc(-c2sc3nc(-c4nccn4C)nc(N[C@H]4C[C@@H](OC)C4)c3c2-c2ccccc2)c1F [drawing 891] | 51 to 75 | 26 to 50 | D (76-100% inhibition) | C (51-75% inhibition) | D (76-100% inhibition) | D (76-100% inhibition) | D (76-100% inhibition) | C (51-75% inhibition)
CO[C@H]1C[C@@H](Nc2nc(-c3nccn3C)nc3sc(-c4cnn(C)c4)c(-c4ccccc4)c23)C1 [drawing 892] | 76 to 100 | 51 to 75 | D (76-100% inhibition) | D (76-100% inhibition) | D (76-100% inhibition) | D (76-100% inhibition) | D (76-100% inhibition) | D (76-100% inhibition)
COc1cccc(-c2sc3nc(-c4nccn4C)nc(NC4CCC(OC)C4)c3c2C)c1F (centres unmarked) [drawing 893] | 51 to 75 | 76 to 100 | C (51-75% inhibition) | D (76-100% inhibition) | C (51-75% inhibition) | C (51-75% inhibition) | C (51-75% inhibition) | C (51-75% inhibition)
COC1CCC(Nc2nc(-c3nccn3C)nc3sc(-c4cccc5[nH]ncc45)c(C)c23)C1 (centres unmarked) [drawing 895] | 51 to 75 | 26 to 50 | D (76-100% inhibition) | B (26-50% inhibition) | D (76-100% inhibition) | B (26-50% inhibition) | D (76-100% inhibition) | B (26-50% inhibition)
COCCn1ccnc1-c1nc(O)c2scc(-c3ccc(OCC(C)C)nc3)c2n1 [drawing 898] | 51 to 75 | 51 to 75 | C (51-75% inhibition) | C (51-75% inhibition) | C (51-75% inhibition) | D (76-100% inhibition) | C (51-75% inhibition) | C (51-75% inhibition)
CC(C)COc1ccc(-c2csc3c(O)nc(-c4nccn4Cc4ccccn4)nc23)cn1 [drawing 899] | 51 to 75 | 76 to 100 | C (51-75% inhibition) | C (51-75% inhibition) | D (76-100% inhibition) | C (51-75% inhibition) | C (51-75% inhibition) | D (76-100% inhibition)
COc1cccc(Cn2ccnc2-c2nc(O)c3scc(-c4ccc(OCC(C)C)nc4)c3n2)c1 [drawing 900] | 51 to 75 | 51 to 75 | B (26-50% inhibition) | C (51-75% inhibition) | C (51-75% inhibition) | C (51-75% inhibition) | B (26-50% inhibition) | C (51-75% inhibition)
CO[C@H]1CC[C@@H](Nc2nc(-c3nccn3C)nc(C(=O)N3CCc4c(O)cccc4C3)c2C)C1 [drawing 901] | 26 to 50 | 26 to 50 | A (1-25% inhibition) | B (26-50% inhibition) | B (26-50% inhibition) | B (26-50% inhibition) | A (1-25% inhibition) | B (26-50% inhibition)
CO[C@H]1C[C@@H](Nc2nc(-c3ccccn3)nc3sccc23)C1 [drawing 902] | 51 to 75 | 51 to 75 | C (51-75% inhibition) | C (51-75% inhibition) | C (51-75% inhibition) | D (76-100% inhibition) | C (51-75% inhibition) | C (51-75% inhibition)
CO[C@H]1C[C@@H](Nc2nc(-c3nccn3C)nc3sccc23)C1 [drawing 903] | 76 to 100 | 76 to 100 | D (76-100% inhibition) | D (76-100% inhibition) | D (76-100% inhibition) | D (76-100% inhibition) | D (76-100% inhibition) | C (51-75% inhibition)
Cn1ccc(-c2sc3nc(-c4nccn4C)nc(O)c3c2-c2ccccc2)n1 [drawing 904] | 26 to 50 | 26 to 50 | B (26-50% inhibition) | B (26-50% inhibition) | B (26-50% inhibition) | C (51-75% inhibition) | A (1-25% inhibition) | A (1-25% inhibition)
CO[C@H]1C[C@H](Nc2nc(-c3nccn3C)nc3sc(-c4ccn(C)n4)c(-c4ccccc4)c23)C1 [drawing 906] | 51 to 75 | 26 to 50 | D (76-100% inhibition) | C (51-75% inhibition) | D (76-100% inhibition) | C (51-75% inhibition) | D (76-100% inhibition) | C (51-75% inhibition)
CN(C)CCOCCNc1nc(-c2nccn2C)nc2sc(-c3ccn(C)n3)c(-c3ccccc3)c12 [drawing 907] | 51 to 75 | 26 to 50 | C (51-75% inhibition) | C (51-75% inhibition) | D (76-100% inhibition) | C (51-75% inhibition) | C (51-75% inhibition) | C (51-75% inhibition)
Cn1ccc(-c2sc3nc(-c4nccn4C)nc(N[C@H]4C[C@@H](O)C4)c3c2-c2ccccc2)n1 [drawing 908] | 0 | 0 | A (1-25% inhibition) | A (1-25% inhibition) | 0 (0% inhibition) | A (1-25% inhibition) | 0 (0% inhibition) | A (1-25% inhibition)
